The subject of series [1] is poinsettia (Euphorbia heterophylla, EPHHL). Description: Postemergence herbicidal activity, greenhouse trial (visual injury 0-100%). The series is classed as in vivo. To be noted: for % visual injury Obs: EPHHL. In a few lines: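 Greenhouse-grown plants at the second to third true leaf stage were sprayed with two-way mixtures in 1.5% v/v Agri-dex crop oil concentrate at 187 L/ha; rates in g ae/ha for component (a) and g ai/ha for component (b). Injury scored visually 0–100% versus solvent-blank controls after 20–22 d, with expected mixture effects from Colby's equation.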

Series [2] has as its system spring rape (Brassica napus, BRSNN). The description is as above. The series is classed as in vivo.
Series [3] has as its system giant foxtail (Setaria faberi, SETFA). The series is described as above. Type of series: in vivo.
Series [4] relates to brown mustard (Brassica juncea, BRSJU). The description is as above. The series is classed as in vivo. The note with it: Compound 1 5 g ae/ha.
The test system of series [5] is winter wheat (Triticum aestivum, TRZAW). The series can be described thus: Postemergence crop injury (phytotoxicity), greenhouse trial (visual injury 0-100%). The note with it: 7.5 g ai/ha. The method, then:
Seeds of the desired test plant species were planted in Sun Gro MetroMix® 306 planting mixture, which typically has a pH of 6.0 to 6.8 and an organic matter content of about 30 percent, in plastic pots with a surface area of 103.2 square centimeters (cm^2). […] The plants were grown for 7-36 days (d) in a greenhouse with an approximate 14-hour (h) photoperiod which was maintained at about 23° C. during the day and 22° C. during the night. Nutrients and water were added on a regular basis and supplemental lighting was provided with overhead metal halide 1000-Watt lamps as necessary. The plants were employed for testing when they reached the second or third true leaf stage.
Weighed amounts of technical material were dissolved in a volume of 97:3 volume per volume (v/v) acetone/dimethyl sulfoxide (DMSO) to stock solutions. […] The concentrated stock solutions were diluted with an aqueous mixture of 1.5% v/v of Agri-dex crop oil concentrate to provide the appropriate application rates. Compound requirements are based upon a 12 milliliter (mL) application volume at a rate of 187 liters per hectare (L/ha). Spray solutions of the experimental compound mixtures were prepared by adding the stock solutions to the appropriate amount of dilution solution to form a 12 mL spray solution in two-way combinations. Formulated compounds were applied to the plant material with an overhead Mandel track sprayer equipped with 8002E nozzles calibrated to deliver 187 L/ha over an application area of 0.503 square meters (m^2) at a spray height of 18 inches (43 centimeters (cm)) above average plant canopy. Control plants were sprayed in the same manner with the solvent blank. Application rates for component (a) are in g ae/ha, and application rates for component (b) are in g ai/ha.
The treated plants and control plants were placed in a greenhouse as described above and watered by sub-irrigation to prevent wash-off of the test compounds. After 20-22 d, the condition of the test plants as compared with that of the control plants was determined visually and scored on a scale of 0 to 100 percent where 0 corresponds to no injury and 100 corresponds to complete kill. The condition of the test plants was compared with that of the control plants as determined visually and scored on a scale of 0 to 100 percent, where 0 corresponds to no injury and 100 corresponds to complete kill. Colby's equation was used to determine the herbicidal effects expected from the mixtures.
Compound 2 was combined with florasulam and applied to winter wheat (TRZAW) and the phytotoxicity of the herbicidal composition was measured. In addition, the efficacy of the herbicidal composition on poinsettia (Euphorbia heterophylla, EPHHL) and […] (Cyperus esculentus, CYPES) was evaluated.
Weighed amounts of technical or formulated material (emulsifiable concentrate (EC) or soluble concentrate (SL)) were dissolved in a volume of 97:3 volume per volume (v/v) acetone/dimethyl sulfoxide (DMSO) to stock solutions. […] The concentrated stock solutions were diluted with an aqueous mixture of 1.5% v/v of Agri-dex crop oil concentrate to provide the appropriate application rates. Compound requirements are based upon a 12 milliliter (mL) application volume at a rate of 187 liters per hectare (L/ha). Spray solutions of the experimental compound mixtures were prepared by adding the stock solutions to the appropriate amount of dilution solution to form a 12 mL spray solution in two-way combinations. […]

On to `Nc1c(F)c(-c2ccc3cc[nH]c3c2F)nc(C(=O)O)c1Cl` [Compound 1], for which the “% visual injury Obs” value in series [1] (Compound 1 5 g ae/ha) was 97%; in series [1] (Compound 1 10 g ae/ha) it was 97%; in series [2] (5 g ae/ha), 50%; in series [2] (BRSNN, Compound 1 5 g ae/ha) it was 70%; in series [3] (5 g ae/ha), 10%; in series [3] (10 g ae/ha) it was 50%. The “% visual injury Obs” value in series [3] (SETFA, Compound 1 5 g ae/ha) turned out to be 10%; in series [3] (SETFA, Compound 1 10 g ae/ha), 50%; in series [4], 60%. Further, the pest or weed control at 5 g/ha in series [1] (Euphorbia heterophylla, post-emergence, 5 g ae/ha, read-out: % visual injury Obs) came to 97%. Besides, the pest or weed control at 10 g/ha in series [1] (Euphorbia heterophylla, post-emergence, 10 g ae/ha, read-out: % visual injury Obs) turned out to be 97%.

Turning to `CCCOc1nn(C(=O)NS(=O)(=O)c2ccccc2C(=O)OC)c(=O)n1C` [Propoxycarbazone, propoxycarbazone], the “% visual injury Obs” value in series [5] is given as 10%.

The record behind these values is patent US20190364896A1, “SYNERGISTIC WEED CONTROL FROM APPLICATIONS OF PYRIDINE CARBOXYLIC ACID HERBICIDES AND ALS INHIBITORS” (Dow AgroSciences LLC, priority 2014, published 2019).
